Source: publication PMC5563081, “Modulating Protein-Protein Interactions of the Mitotic Polo-like Kinases to Target Mutant KRAS” (Cell Chemical Biology, 2017)
Like-named read-outs stand apart in the source and are kept apart here.

Legend:
[1] = test system: SW48 parental (KRAS WT) cells; experiment: Cell viability (SRB), SW48 parental; type: cell-based; conditions: Homo sapiens
Description: (§1) SW48 Parental, SW48 G12D, Panc-1, HPAF-II, Panc 02.03 and Panc 05.04 cell lines were seeded overnight at 5000 cells per well in a 96 well plate in recommended media (ATCC). Compounds were added the following day and viability was measured at 72h using the sulforhodamine B (SRB) colorimetric assay as follows. Cells were fixed by replacing media with 1% v/v Trichloroacetic Acid (TCA) (Sigma-Aldrich) at 4°C and incubated for 1h also at 4°C. Wells were washed thoroughly with copious amounts of deionised water before staining with Sulforhodamine B (SRB) (Sigma-Aldrich) solution (0.057% w/v in 1% v/v Acetic Acid (VWR)) for 30 min. Stain was aspirated and wells washed with several changes of 1% v/v Acetic Acid until unbound stain was removed, before air-drying. Bound stain was solubilized with 100μl / well 10mM Tris (pH 8.0) (Trizma Base (121.1) Sigma-Aldrich) with agitation for 10 min. Fluorescence intensity was recorded at Ex540nm / Em590nm using a BMG Pherastar Plus plate reader ([Vichai and Kirtikara, 2006]).

[2] = test system: murine pancreatic organoids KRAS WT p53 MUT; experiment: Viability of pancreatic organoids (CellTitre Glo 3D), KRAS WT; type: cell-based; conditions: Mus musculus, read-out: Mean GI50
Description: (§2) Organoid cultures were prepared from the pancreas of LSL-Trp53^R172H/+, Pdx-1-Cre (for Kras WT organoids) or LSL-Trp53^R172H/+, LSL-Kras^G12D/+, Pdx-1-Cre (for Kras^G12D organoids KPC3760 and KPC26684) strains ([Hingorani et al., 2005]). Pancreatic ducts were manually picked after tissue mincing and overnight enzymatic digestion with 0.012% (w/v) collagenase XI (Sigma) and 0.012% (w/v) dispase (GIBCO) in DMEM media containing 1% FBS (GIBCO), before seeding in growth-factor-reduced (GFR) Matrigel (BD) ([Boj et al., 2015]).
(§3) Pancreatic organoids were extracted and cultured as detailed above ([Boj et al., 2015]). In brief, pancreatic organoids were seeded at 600 cells per well in a 96 well plate and allowed to grow for 7 days with media replenishment on the 3rd day. Full-grown organoids were then treated with compounds for 72h and viability determined using CellTitre Glo 3D assay (Promega). For viability assays with c-MET siRNA, cells were reverse transfected in a 6 cm dish using Dharmafect 1 (GE Dharmacon) per manufacturer’s instructions. On the following day, cells were trypsinised and plated onto 96 well plates or 6 well plates. The 96 well plates were treated with a dose range of compounds or DMSO, and viability was determined via SRB colorimetric assay. Cells in the 6 well plates were collected at the end of experiment to corroborate knockdown of c-MET by Western blotting.

[3] = test system: murine pancreatic organoids KRAS MUT p53 MUT; experiment: Viability of pancreatic organoids (CellTitre Glo 3D), KRAS G12D; type: cell-based; conditions: Mus musculus
Description: as §2, §3

HeLa-KRAS G12D = experiment: GI50 for cell killing, HeLa-KRAS G12D; type: cell-based; conditions: Homo sapiens
Description: Five x10^4 cells were seeded on each well of 4-well coverglass Lab-Tek chambers in a volume of 800 μl. HeLa-G12D cells were induced with Doxycycline (Dox) 24h before seeding and kept in Dox for the rest of the experiment.

Panc-1 = experiment: Cell viability (SRB), Panc-1; type: cell-based, human; conditions: Homo sapiens, PANC-1, 72 h; for GI50: read-out: Abs GI50
Description: as §1, §3
Cells were reverse-transfected with 50nM (SW48 parental, SW48 KRAS G12D and Panc-1) or 25nM (HeLa Flp-In T-REx parental cells) siRNA using Dharmafect (GE Dharmacon) as manufacturer’s recommendations. Where transfected cells were subsequently treated with compounds, the cells were allowed to settle overnight and then treated with compound at the indicated concentration the following day. Viability was assessed after 72 hrs, with the SRB colorimetric assay. Knockdown efficiencies were determined by Western blot or RT-qPCR. Oligos against the following target sequences were used. c-MET (Qiagen): […], […], […]. PLK1 (Qiagen): […]. PLK2 (SMARTpool; Dharmacon): ACACAGAAGGAGAACGAUA, CAUCAAUGAGGAUAGGAUA, CUGCCUAGUGUUACUGAUA, ACAAAGUCUACGCCGCAAA. PLK3 (SMARTpool; Dharmacon): GCGAGAAGAUCCUAAAUGA, GCAAGUGGGUUGACUACUC, GCACAUCCGUUGGCCAUCA, GACCUCAAGUUGGGAAAUU. PLK4 (Qiagen): […].

[4] = test system: HCT116 (KRAS G13D) xenografts; experiment: Xenograft study, tumour volume; type: in vivo, mouse; conditions: for Group Mean at Day 15 (tumour volume): HCT116 xenograft, vehicle 778
Description: Male athymic mice were purchased from Harlan (UK) and acclimatised for 7 days prior to study commencement. Animals were housed in IVC cages (5 per cage) with individual mice identified by tail marking. All animals were allowed free access to a standard certified commercial diet and sanitised water during the study. The holding room was maintained under standard conditions: 20-24°C, 40-70% humidity and a 12h light/dark cycle. All experiments were performed under approved ethical and procedural guidelines.
(§4) Tumours were established by sub-cutaneous implantation of 2 x 10^6 HCT116 cells suspended in 50% Matrigel into the flanks of a cohort of mice. When a sufficient number of mice had developed tumours of approximately 100mm3, they were randomly assigned to three groups: Vehicle, 50mg/kg Poloppin-II or 200mg/kg Poloppin-II, with 10 mice per group. Mice were treated orally according to their treatment group once every three days. Tumour volume was measured three times per week with calipers. Body weight was measured three times per week. In addition to mice assigned to tumour volume efficacy arm of the study, 16 mice with established HCT116 xenografts were assigned to either Vehicle or 200mg/kg oral dosing groups, with 8 mice per group. 24 hours after a single dose, mice were euthanised, tumours removed, snap frozen and 30-50microgram of lysates were analysed by Western blotting on 4-12% Bis-Tris acrylamide gels, and transferred using the Invitrogen iBlot dry system. Phospho-Histone H3 was detected using Abcam antibody ab5176, beta-actin with Sigma antibody a5316. […] HRP was visualised with ECL-Plus (GE Healthcare).

phospho-Ser10 histone H3 = experiment: Phospho-histone H3 (Ser10) in xenograft tumour lysates (Western blot); type: in vivo, mouse; conditions: within 24 hr after single 200mg/kg oral dose, compared with vehicle
Description: as §4

SMILES	GI50 ([1]; SW48) [µM]	GI50 [2] [µM]	GI50 ([3]; read-out: Mean GI50, organoids KRAS MUT p53 MUT #1, n=2) [µM]	GI50 ([3]; read-out: Mean GI50, organoids KRAS MUT p53 MUT #2, n=2) [µM]	GI50 (HeLa-KRAS G12D) [µM]	GI50 (Panc-1) [µM]	EC50 (Panc-1; read-out: EC50, % survival, Panc-1, All Stars control siRNA, 72 h) [µM]	EC50 (Panc-1; read-out: EC50, % survival, Panc-1, siMET, 72 h) [µM]	GI50 ([1]; SW48 Parental, 72 hr, Figure 5D, read-out: GI50) [µM]	GI50 ([2]; organoids KRAS WT p53 MUT, n=2) [µM]	GI50 ([3]; organoids KRAS MUT p53 MUT #2, n=2, read-out: Mean GI50) [µM]	GI50 (Panc-1; Panc-1, individual compound, 72 hr, Figure 7G) [µM]	growth of xenografted tumors ([4]; 50 mg/kg oral, HCT116 KRAS G13D)	Group Mean at Day 15 (tumour volume) ([4]; 50mg/kg oral every three days) [mm³]	Group Mean at Day 15 (tumour volume) ([4]; 200mg/kg oral, treatment suspended after seven days) [mm³]	phospho-Ser10 histone H3 expression in xenografts (phospho-Ser10 histone H3)
O=C(O)CCc1ccc(-c2ccc(Br)cc2)n1-c1ccccc1C(F)(F)F [Poloppin]	13.7 ± 1.03	119	22.9	28.4	5	33.4	40.4 ± 1.03	16.8 ± 1.03								
CN(C)CCNC(=O)c1ccc(-c2ccc(-c3ccc(Cl)cc3)n2-c2ccccc2C(F)(F)F)cc1 [Poloppin-II]									0.0398 ± 0.00112	102	22.9	0.314	reduced the growth of xenografted tumors	415	371	increased levels
